Reference: PubChem BioAssay (NCI)
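Cells were grown in 96-well plates and exposed to each compound for 48 hours at five concentrations; endpoints were interpolated linearly between bracketing concentrations, or set to the highest concentration if not reached. The concentration for 50% growth inhibition is given as GI50. TGI: total growth inhibition.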

Key:
Experiment in all cases: NCI tumour cell line growth inhibition, 48 h
NCI-H226 lung = test system: NCI-H226 lung
SNB-19 CNS = test system: SNB-19 CNS
SF-539 CNS = test system: SF-539 CNS
M19-MEL melanoma = test system: M19-MEL melanoma
SR leukemia = test system: SR leukemia
UACC-62 melanoma = test system: UACC-62 melanoma
SN12C renal = test system: SN12C renal
LXFL 529 NSCLC = test system: LXFL 529 NSCLC
HCT-116 colon = test system: HCT-116 colon
BT-549 breast = test system: BT-549 breast

SMILES | TGI (NCI-H226 lung) [µM] | TGI (SNB-19 CNS) [µM] | TGI (SF-539 CNS) [µM] | TGI (M19-MEL melanoma) [µM] | TGI (SR leukemia) [µM] | TGI (UACC-62 melanoma) [µM] | TGI (SN12C renal) [µM] | TGI (LXFL 529 NSCLC) [µM] | TGI (HCT-116 colon) [µM] | TGI (BT-549 breast) [µM] | GI50 (NCI-H226 lung) [µM] | GI50 (SNB-19 CNS) [µM] | GI50 (SF-539 CNS) [µM] | GI50 (M19-MEL melanoma) [µM] | GI50 (BT-549 breast) [µM] | GI50 (UACC-62 melanoma) [µM] | GI50 (SN12C renal) [µM] | GI50 (LXFL 529 NSCLC) [µM] | GI50 (HCT-116 colon) [µM]
O=C(CC1(O)C(=O)Nc2c(Cl)ccc(Cl)c21)c1ccc2ccccc2c1 (stereo unspecified) | 39.1 | 53 | 35.5 | 7.82 | 7.62 | 10.7 | 31.3 | 21.8 | 28.3 |  |  |  |  |  |  |  |  |  | 
COC(=O)/C([Se]c1c(C)cc(C)cc1C)=C(\[Se]c1c(C)cc(C)cc1C)C(=O)OC | > 100 | > 100 |  | > 100 | > 100 | > 100 | > 100 | > 100 | > 100 |  |  |  |  |  |  |  |  |  | 
CCOC(=O)N1CCc2cc(OC)c(OC)c3c2c1cc1cc(OC)c(OC)cc13 | > 100 | > 100 | 9.17 | > 100 | > 38.6 | 63 | > 100 | > 100 | 30.7 | 3.65 |  |  |  |  |  |  |  |  | 
O=C(CO)CC(=O)C(=O)Nc1ccccc1 | > 100 | > 100 | > 100 | > 100 | > 100 | > 100 | > 100 | > 100 | > 100 |  |  |  |  |  |  |  |  |  | 
O=[N+]([O-])c1nccn1CC(O)CN1CC1 (stereo unspecified) | > 100 | > 100 | > 100 | > 100 | > 100 | > 100 | > 100 | > 100 | > 100 |  |  |  |  |  |  |  |  |  | 
Oc1cc(O)c2c(-c3c(O)c(-c4ccc(O)c(O)c4)[o+]c4cc(O)cc(O)c34)c(O)c(-c3ccc(O)c(O)c3)[o+]c2c1 | 64 | > 100 | 50.3 | > 100 | 74.8 | 46.7 | > 100 | > 100 | > 100 |  |  |  |  |  |  |  |  |  | 
CCC/C(=N/NC(=O)C(N)=O)C(CC)C(=O)CCC(=O)N(Cc1ccccc1)Cc1ccccc1 (stereo unspecified) | > 100 | > 100 | > 100 | > 100 | > 100 | > 100 | > 100 | > 100 | > 100 |  |  |  |  |  |  |  |  |  | 
N[C@@H]1CCCC[C@H]1N.O=C([O-])C(=O)[O-].[Pt+4] | 17 | > 100 | > 83.8 | > 100 |  | 23.5 | > 100 | > 100 | > 100 | > 100 | 2.55 | 9.85 | 10 | 1.18 | 12.3 | 2.2 | 2.56 | 2.36 | 0.378
N#CC(C(=O)CCC(=O)C(C#N)c1ccccc1)c1ccccc1 (stereo unspecified) | > 100 | > 100 | > 100 | > 100 | > 100 | > 100 | > 100 | > 100 | > 100 |  |  |  |  |  |  |  |  |  | 
CCC1(c2c(F)c(F)c(N)c(F)c2F)CCC(=O)NC1=O (stereo unspecified) | > 100 | > 100 | > 100 | > 100 | > 100 | > 100 |  | > 100 | > 100 |  |  |  |  |  |  |  |  |  | 
CC(=O)[CH-]C(=O)c1ccccc1.CC(=O)[CH-]C(=O)c1ccccc1.CC1(C)C2CCC1(C)C([O-])C2.CC1(C)C2CCC1(C)C([O-])C2.[Ti+4] | 90.7 | 97.7 | 45.9 | > 100 |  | 51.3 | > 100 | > 100 | > 100 |  | 23.2 | 25.8 | 17.8 | 24.4 |  | 16.7 | 27.9 | 23.7 | 34.9
CC1(c2cccc3ccccc23)OC(=O)c2ccccc21 (stereo unspecified) | 48.3 | > 100 | 30.2 | 51.3 |  | 25.6 | 67.8 | > 100 | 34.6 |  |  |  |  |  |  |  |  |  | 
COC(=O)C(=O)OC1(C(C)=O)CC2(c3ccccc3)OC1(c1ccccc1)c1ccccc12 (stereo unspecified) | 31.7 | 47.3 | 26.7 | 31.1 | > 100 | 28.1 | 28.6 | 49.2 | 33.8 |  |  |  |  |  |  |  |  |  | 
Oc1ccccc1C=NCc1ccco1 | > 100 | > 100 | > 100 | > 100 | > 100 | > 100 | > 100 | > 100 | > 100 |  |  |  |  |  |  |  |  |  | 
BrC1=CC=C2NC=CC3=CC=NC1C32 (stereo unspecified) | 45.9 | > 75 | > 100 | 30.1 | 26 | 22.6 | > 100 | > 70 | 21.1 |  |  |  |  |  |  |  |  |  | 
N/C(=C\c1ccc(OCc2ccccc2)c(OCc2ccccc2)c1[N+](=O)[O-])C(=O)O | > 100 | > 100 | > 100 | > 100 | > 100 | > 100 | > 100 | > 100 | > 100 |  |  |  |  |  |  |  |  |  | 
N#CC(C(=O)/C(=N/N)C(C#N)c1ccccc1)c1ccccc1 (stereo unspecified) | > 100 | > 100 | > 100 | > 100 |  | > 100 | > 100 | > 100 | > 100 |  |  |  |  |  |  |  |  |  | 
